For 1 compound, Ki results are on record in ChEMBL document CHEMBL3886943, “C2-azaspiro iminothiazine dioxides as BACE inhibitors, compositions, and their use” (2016).

SMILES strings stand for the structures.

One assay addresses T1, Beta-secretase 2 (Homo sapiens, UniProt Q9Y5Z0).
T1 sequence (Q9Y5Z0 whole entry): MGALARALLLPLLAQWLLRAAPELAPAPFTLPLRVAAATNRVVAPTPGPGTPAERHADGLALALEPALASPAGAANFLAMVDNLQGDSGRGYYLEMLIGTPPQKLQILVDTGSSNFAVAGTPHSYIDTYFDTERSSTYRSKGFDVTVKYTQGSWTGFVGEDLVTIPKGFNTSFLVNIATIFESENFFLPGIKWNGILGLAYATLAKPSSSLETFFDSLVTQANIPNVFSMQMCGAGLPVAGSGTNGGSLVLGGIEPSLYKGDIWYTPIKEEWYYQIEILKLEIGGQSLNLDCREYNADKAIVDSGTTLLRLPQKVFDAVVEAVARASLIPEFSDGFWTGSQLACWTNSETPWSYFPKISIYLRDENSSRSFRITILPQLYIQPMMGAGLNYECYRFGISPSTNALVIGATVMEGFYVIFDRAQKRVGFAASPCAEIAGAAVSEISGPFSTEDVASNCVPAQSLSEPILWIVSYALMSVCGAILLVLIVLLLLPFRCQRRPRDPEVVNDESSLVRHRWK
The assay can be described thus: DMSO is present at 5% final concentration in the assay. Following laser excitation of sample wells at 320 nm, the fluorescence signal at 620 nm is collected for 400 ms following a 50 us delay on a RUBYstar HTRF plate reader (BMG Labtechnologies). Raw RFU data is normalized to maximum (1.0 nM BACE/DMSO) and minimum (no enzyme/DMSO) RFU values. […] The Ki values are calculated from the IC50 using the Cheng-Prusoff equation.

For the next assay, the target named is Beta-secretase 1 (Homo sapiens, UniProt P56817). The assay can be described thus: This assay monitors the increase of 620 nm fluorescence that resulted from BACE1 cleavage of an APPswedish APPswe mutant peptide FRET substrate (QSY7-[…]-Europium-amide). This substrate contains an N-terminal QSY7 moiety that serves as a quencher of the C-terminal Europium fluorophore (620 nm Em). […] Reactions are initiated by addition of 10 ul of 600 nM QSY7-APPswe-Eu substrate (200 nM final) to give a final reaction volume of 30 ul in a 384 well Nunc HTRF plate. The reactions are incubated at 30° C. for 1.5 hours. The 620 nm fluorescence is then read on a Rubystar HTRF plate reader (BMG Labtechnologies) using a 50 millisecond delay followed by a 400 millisecond acquisition time window. Inhibitor IC50 values are derived from non-linear regression analysis of concentration response curves. For orientation: TR-FRET usually uses a lanthanide donor and a delayed reading to cut background.
Sequence of Beta-secretase 1 (P56817 whole entry): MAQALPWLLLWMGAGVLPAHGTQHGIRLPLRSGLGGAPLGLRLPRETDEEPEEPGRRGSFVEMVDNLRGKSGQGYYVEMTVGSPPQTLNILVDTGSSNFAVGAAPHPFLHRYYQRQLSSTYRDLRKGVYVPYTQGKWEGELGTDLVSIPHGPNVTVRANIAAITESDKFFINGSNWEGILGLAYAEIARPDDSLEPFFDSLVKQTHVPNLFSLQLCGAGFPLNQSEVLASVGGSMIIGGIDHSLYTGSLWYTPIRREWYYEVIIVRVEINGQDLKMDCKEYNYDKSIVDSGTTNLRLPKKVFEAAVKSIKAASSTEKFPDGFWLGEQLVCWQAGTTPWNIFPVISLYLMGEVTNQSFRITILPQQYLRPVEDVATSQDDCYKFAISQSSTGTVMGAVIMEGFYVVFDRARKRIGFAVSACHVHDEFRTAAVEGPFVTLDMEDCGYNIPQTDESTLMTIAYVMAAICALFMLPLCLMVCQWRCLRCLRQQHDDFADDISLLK

The Ki is the dissociation constant of the complex between target and ligand, obtained from inhibition or displacement. `CN1CCC2(CC1)C(=N)N[C@](C)(c1cc(NC(=O)C(F)F)ccc1F)CS2(=O)=O`: the results for the Ki at Beta-secretase 2 and at Beta-secretase 1 were 210 nM and 1710 nM, respectively.
